Laboratory results taken from patent US8765459B2, “Apparatus and methods for manipulation and optimization of biological systems” (The Regents of the University of California, priority 2004, dated 2014).

Tests used:
[1] = tested on: NF-κB; experiment: Gur Game closed-loop optimization of cytokine combination, NF-κB GFP reporter in microfluidic channels; assay type: cell-based; details: 293T cells with κB4-GFP reporter; 1 h stimulation, GFP read 7 h after; determined by final probability distributions of Gur Game search
Procedure: To implement the Gur Game algorithm, each cytokine was represented by an automaton with 10 discrete states (0, 0.25, 0.5, 1, 2.5, 5, 10, 25, 50, and 100 ng/ml) as shown in FIG. 6. At each iteration, a combination of cytokines at their respective states was applied to stimulate the cells for one hour. […] The GFP expression kinetics is thought to be controlled by protein folding and degradation rates, while the amount of transcription (GFP intensity) is thought to provide an indication of the NF-κB activity. The peak intensities were normalized as the reward function for Gur Game. The reward function maps the system state from 0 to 1, with high GFP intensity corresponds to values nearer 1. For each automaton, a random number from 0 to 1 is chosen and compared with the reward value. The next states of the automata were determined according to a prescribed manner (see FIG. 1). The process was repeated for each cytokine during each iteration.
(§1) Microfluidic systems have been proven to be effective for manipulating different biological objects, such as cells and molecules. In this example, the optimization experiments were conducted inside microfluidic channels to facilitate real-time monitoring and dynamic stimulation of the cells. (In FIGS. 7a, the concentrations of individual cytokines are indicated as follows: TNFα concentrations are plotted as solid squares; TNFβ concentrations are plotted as solid circles; IL-1α concentrations are plotted as solid triangles; IL-1β concentrations are plotted as inverted triangles; EFG concentrations are plotted as open squares; and BAFF concentrations are plotted as open circles.) The initial concentrations of the cytokines were 2.5 ng/ml. In order to monitor the activity of the NF-κB, a plasmid with a green fluorescent protein (GFP) reporter gene was placed in the 293T cell. The GFP expression is controlled by a promoter which consisted of a kappa enhancer element (κB4). Similar configurations have been applied in other studies where the GFP fluorescence intensity was able to reflect the cellular NF-κB activity. In addition, computational analysis was performed to correlate the relationship between the expression level of GPF and the activity of NF-κB. Numerical simulation indicated the best duration and time for cytokine stimulation and GFP intensity measurement. The GFP fluorescence intensity of each cell was recorded 7 hours after the stimulation as shown in FIG. 7B (data represent the average intensity of 40-128 cells).
The Gur Game was used to determine the cytokine concentrations in subsequent iterations to probabilistically drive the system toward a high GFP output, i.e. high NF-κB activity. FIG. 6 is a flow chart illustrating an exemplary Gur Game Algorithm, the algorithm used in this example. A detailed description of this exemplary algorithm is set forth above. The peak intensities were normalized as the reward function for this exemplary Gur Game algorithm. The reward function maps the system state from 0 to 1, with high GFP intensity corresponds to values nearer 1. For each automaton, a random number from 0 to 1 is chosen and compared with the reward value.
The next states of the automata were determined according to a prescribed manner, as illustrated in FIG. 7. The process was repeated for each cytokine during each iteration. Each cytokine as represented by an automaton. The numbers represent the concentration of the cytokines, in ng/ml. During each iteration, a random number was generated for each automaton. The numbers were compared to the reward value. If the reward value was larger than the random number, the automaton was rewarded (win). Otherwise, the automaton was penalized (lose). The automaton then decided the state in the next iteration according to the automaton design. Generally, the state moves toward center if penalized, and away the center if rewarded.
Referring to FIGS. 8aand 8b, initially, the system rejected several cytokine combinations with seemingly high outputs. […]

[2] = tested on: NF-κB; experiment: Sensitivity analysis of individual cytokines in the potent combination, NF-κB GFP reporter, 96-well plates; assay type: cell-based; details: 293T cells; for effect on NF-κB activity when varied within the potent cytokine combination / decrease in fluorescence intensity on elimination of the cytokine from the cytokine combination: 96-well plates, other cytokines held constant, 1 h stimulation, fluorescence 7 h after
Procedure: as §1
Experiments were conducted in 96-well plates. The cells were stimulated with the appropriate concentration of cytokines for one hour and washed with fresh media.

Molecule	concentration in the most potent cytokine combination for activating NF-κB [1]	effect on NF-κB activity alone, without the potent cytokine combination [2]	effect on NF-κB activity when varied within the potent cytokine combination [2]	decrease in fluorescence intensity on elimination of the cytokine from the cytokine combination [2]
BAFF: cytokine tested in the combination for NF-κB activity	2.5 ng/mL	minimal effect	minimal effect	
IL-1β: cytokine used as stimulus of NF-κB activity	25 ng/mL		not sensitive to their concentrations in the range of 25-50 ng/ml	~30%
TNFα	25 ng/mL		most sensitive in the combination	~50%
epidermal growth factor [EGF]	2.5 ng/mL	did not show a strong effect	decreased the NF-κB activity with increasing dose concentration	
TNFβ: cytokine used as stimulus of NF-κB activity (protein, UniProt P01374 35-205, looked up) Lymphotoxin-alpha: LPGVGLTPSAAQTARQHPKMHLAHSTLKPAAHLIGDPSKQNSLLWRANTDRAFLQDGFSLSNNSLLVPTSGIYFVYSQVVFSGKAYSPKATSSPLYLAHEVQLFSSQYPFHVPLLSSQKMVYPGLQEPWLHSMYHGAAFQLTQGDQLSTHTDGIPHLVLSPSTVFFGAFAL	50 ng/mL			~30%
IL-1α: cytokine used as stimulus of NF-κB activity (protein, UniProt P01583 113-271, looked up) Interleukin-1 alpha: SAPFSFLSNVKYNFMRIIKYEFILNDALNQSIIRANDQYLTAAALHNLDEAVKFDMGAYKSSKDDAKITVILRISKTQLYVTAQDEDQPVLLKEMPEIPKTITGSETNLLFFWETHGTKNYFTSVAHPNLFIATKQDYWVCLAGGPPSITDFQILENQA	50 ng/mL		not sensitive to their concentrations in the range of 25-50 ng/ml	~30%
